From the supplement of paper PMC13380429

Key:
Conditions in all cases: 72 h
[1] = test system: Caco-2; assay: cell viability relative to DMSO; higher = less toxic
[2] = test system: Calu-3; assay: as above
[3] = test system: HepG2; assay: as above
[4] = test system: U2OS; assay: as above
[5] = test system: Vero E6; assay: as above
[6] = test system: Caco-2; assay: relative viability EC50 (midpoint between 100% and the lowest measured viability); higher = less toxic
[7] = test system: Calu-3; assay: as above
[8] = test system: HepG2; assay: as above
[9] = test system: U2OS; assay: as above
[10] = test system: Vero E6; assay: as above
[11] = test system: Caco-2; assay: drug sensitivity score (DSS) for viability; higher = more toxic; extreme values may be limits of the assay
[12] = test system: Calu-3; assay: as above
[13] = test system: HepG2; assay: as above
[14] = test system: U2OS; assay: as above
[15] = test system: Vero E6; assay: as above

Structure (SMILES)	cell viability ([1]; 1 nM) [%]	cell viability ([1]; 10 nM) [%]	cell viability ([1]; 100 nM) [%]	cell viability ([1]; 1000 nM) [%]	cell viability ([1]; 10000 nM) [%]	cell viability ([2]; 1 nM) [%]	cell viability ([2]; 10 nM) [%]	cell viability ([2]; 100 nM) [%]	cell viability ([2]; 1000 nM) [%]	cell viability ([2]; 10000 nM) [%]	cell viability ([3]; 1 nM) [%]	cell viability ([3]; 10 nM) [%]	cell viability ([3]; 100 nM) [%]	cell viability ([3]; 1000 nM) [%]	cell viability ([3]; 10000 nM) [%]	cell viability ([4]; 1 nM) [%]	cell viability ([4]; 10 nM) [%]	cell viability ([4]; 100 nM) [%]	cell viability ([4]; 1000 nM) [%]	cell viability ([4]; 10000 nM) [%]	cell viability ([5]; 1 nM) [%]	cell viability ([5]; 10 nM) [%]	cell viability ([5]; 100 nM) [%]	cell viability ([5]; 1000 nM) [%]	cell viability ([5]; 10000 nM) [%]	relative viability EC50 [6] [µM]	relative viability EC50 [7] [µM]	relative viability EC50 [8] [µM]	relative viability EC50 [9] [µM]	relative viability EC50 [10] [µM]	drug sensitivity score [11]	drug sensitivity score [12]	drug sensitivity score [13]	drug sensitivity score [14]	drug sensitivity score [15]
NC(=O)c1cccc(-c2cccc(OC(=O)NC3CCCCC3)c2)c1 [URB597]	93.9	98.7	93.9	103	89.1	86.4	94.6	92.7	88.4	99.1	104	105	104	96.9	92.3	94	102	98.5	105	98.8	107	98.5	104	96.7	103	> 10	> 10	> 10	> 10	> 10	0	0	0	0	0
COc1cc2nc(N3CCC(N4CCCCC4)CC3)nc(NC3CCCCCC3)c2cc1OC [C-021]	101	101	108	93.4	23.4	98.4	100	94.7	90	4.2	108	93.7	99.4	101	-0.2	99.4	98.7	99.1	94.6	16.7	96.8	102	99.1	97.5	0.8	2.47	2.31	3.24	2.65	2.98	5.3	6.9	5.5	5.4	5.9
COC(=O)[C@H](Cc1ccc([N+](=O)[O-])cc1)NC(=O)c1cccc2ccccc12	99.8	98.7	99.4	95.6	89	101	95.8	92.8	100	109	102	97.1	105	101	107	94.2	99	96.6	99.5	100	94.4	96.7	90.8	87.4	101	> 10	> 10	> 10	> 10	> 10	0	0	0	0	0
O=C(/C=C/c1cccc(F)c1)NC1CC1 [cinflumide]	104	99.9	95.5	99.3	98.1	96.8	91.7	102	99.9	96.4	92.8	101	101	97.7	84.8	98.9	101	91.5	98	99.8	101	98.7	106	102	91.8	> 10	> 10	> 10	> 10	> 10	0	0	0.5	0	0
C[C@]12C=CC(=O)C=C1CC[C@@H]1[C@@H]2[C@@H](O)C[C@@]2(C)[C@H]1CC[C@]2(O)C(=O)COC(=O)CCC(=O)O [prednisolone-hemisuccinate]	94.7	103	93.3	91.3	79.8	98.6	102	97.2	102	88.9	112	92.5	91.7	98.5	108	97.5	103	96	100	93.6	99.3	99.9	95.8	90	98.6	> 10	> 10	> 10	> 10	> 10	1.1	0	0	0	0
CCOC(=O)Nc1ccc2c(c1)N(C(=O)CN(C)C)c1ccccc1CC2 [tiracizine]	106	105	105	98.9	100	107	103	87	85	106	106	95.4	111	87.6	102	99.9	104	96.5	101	99.7	99.8	99.2	97.3	97.9	97.8	> 10	> 10	> 10	> 10	> 10	0	0	0	0	0
C[C@@H]1O[C@@H](O[C@H]2[C@H](Oc3cc(O)c(C(=O)CCc4ccc(O)cc4)c(O)c3)O[C@H](CO)[C@@H](O)[C@@H]2O)[C@H](O)[C@H](O)[C@H]1O [naringin-dihydrochalcone]	94.2	92.2	99.5	102	96.3	95.6	90.9	92.7	101	105	110	93.2	105	90.9	101	93.1	96.2	94.2	102	95.6	104	104	104	102	99.9	> 10	> 10	> 10	> 10	> 10	0	0	0	0	0
